Test results from patent publication US10308639B2, “Phosphatidylinositol 3-kinase inhibitors” (Gilead Sciences, Inc., priority 2014, dated 2019).

Experiments:
Format in all cases: biochemical
PI3Kβ = biological target: T1, PI3Kβ (Homo sapiens, UniProt P42338); test: TR-FRET enzymatic activity assay, PI3Kβ; conditions: Table 2a; same assay
T1 construct: made in house

PI3Kδ = biological target: T2, PI3Kδ (Homo sapiens, UniProt O00329); test: TR-FRET enzymatic activity assay, PI3Kδ; conditions: Table 2a; same assay
T2 construct: made in house
T2 sequence (O00329 whole entry): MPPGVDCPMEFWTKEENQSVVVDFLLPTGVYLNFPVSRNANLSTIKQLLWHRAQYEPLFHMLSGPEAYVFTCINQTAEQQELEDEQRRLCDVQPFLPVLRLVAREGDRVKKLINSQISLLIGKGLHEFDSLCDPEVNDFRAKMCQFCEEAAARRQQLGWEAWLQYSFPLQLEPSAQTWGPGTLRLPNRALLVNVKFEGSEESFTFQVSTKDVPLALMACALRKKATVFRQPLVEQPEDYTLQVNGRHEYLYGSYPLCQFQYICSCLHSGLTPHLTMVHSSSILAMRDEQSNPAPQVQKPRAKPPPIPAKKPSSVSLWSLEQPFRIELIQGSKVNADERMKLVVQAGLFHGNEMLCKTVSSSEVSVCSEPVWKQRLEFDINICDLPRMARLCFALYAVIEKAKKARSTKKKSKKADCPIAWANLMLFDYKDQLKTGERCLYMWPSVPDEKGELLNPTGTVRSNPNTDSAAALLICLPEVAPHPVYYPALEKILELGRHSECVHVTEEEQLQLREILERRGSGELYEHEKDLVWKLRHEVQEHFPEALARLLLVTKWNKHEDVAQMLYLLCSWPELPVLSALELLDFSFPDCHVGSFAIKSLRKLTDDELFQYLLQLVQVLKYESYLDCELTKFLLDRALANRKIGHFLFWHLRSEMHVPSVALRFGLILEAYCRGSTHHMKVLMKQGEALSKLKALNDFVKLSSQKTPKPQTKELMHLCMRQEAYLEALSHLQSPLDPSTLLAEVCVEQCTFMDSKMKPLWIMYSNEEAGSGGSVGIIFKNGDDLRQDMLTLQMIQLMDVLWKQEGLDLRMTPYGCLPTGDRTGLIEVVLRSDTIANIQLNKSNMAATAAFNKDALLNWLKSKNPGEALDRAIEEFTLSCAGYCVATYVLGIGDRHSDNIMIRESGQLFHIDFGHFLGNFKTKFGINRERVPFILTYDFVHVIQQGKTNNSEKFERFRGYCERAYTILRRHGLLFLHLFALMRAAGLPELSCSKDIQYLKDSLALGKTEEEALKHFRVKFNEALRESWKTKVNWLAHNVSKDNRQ
T2 sequence (P27986 whole entry partner): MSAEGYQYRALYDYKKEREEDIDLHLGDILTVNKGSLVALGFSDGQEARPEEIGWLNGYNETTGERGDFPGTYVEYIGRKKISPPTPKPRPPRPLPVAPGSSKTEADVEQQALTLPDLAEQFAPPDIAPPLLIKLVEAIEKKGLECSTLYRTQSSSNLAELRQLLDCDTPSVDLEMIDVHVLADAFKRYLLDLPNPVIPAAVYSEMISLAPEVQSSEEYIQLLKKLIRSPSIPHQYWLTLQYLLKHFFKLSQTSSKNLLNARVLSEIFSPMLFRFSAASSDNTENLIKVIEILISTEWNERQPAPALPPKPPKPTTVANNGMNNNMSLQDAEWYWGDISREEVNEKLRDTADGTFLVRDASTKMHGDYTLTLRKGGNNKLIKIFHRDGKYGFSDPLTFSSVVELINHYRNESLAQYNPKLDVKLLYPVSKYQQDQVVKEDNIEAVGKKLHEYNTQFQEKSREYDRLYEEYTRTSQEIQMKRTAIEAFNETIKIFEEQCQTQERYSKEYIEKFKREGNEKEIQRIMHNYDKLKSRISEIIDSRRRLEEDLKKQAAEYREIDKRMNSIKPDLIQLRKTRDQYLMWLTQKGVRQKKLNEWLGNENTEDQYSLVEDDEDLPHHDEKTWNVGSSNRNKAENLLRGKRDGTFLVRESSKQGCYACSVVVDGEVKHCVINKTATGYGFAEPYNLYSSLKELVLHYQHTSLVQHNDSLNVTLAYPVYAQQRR

PI3Kγ = biological target: T3, PI3Kγ (Homo sapiens, UniProt P48736); test: TR-FRET enzymatic activity assay, PI3Kγ; conditions: Table 2a; same assay; read-out: PI3Kγ IC50
T3 construct: made in house
T3 sequence (P48736 whole entry): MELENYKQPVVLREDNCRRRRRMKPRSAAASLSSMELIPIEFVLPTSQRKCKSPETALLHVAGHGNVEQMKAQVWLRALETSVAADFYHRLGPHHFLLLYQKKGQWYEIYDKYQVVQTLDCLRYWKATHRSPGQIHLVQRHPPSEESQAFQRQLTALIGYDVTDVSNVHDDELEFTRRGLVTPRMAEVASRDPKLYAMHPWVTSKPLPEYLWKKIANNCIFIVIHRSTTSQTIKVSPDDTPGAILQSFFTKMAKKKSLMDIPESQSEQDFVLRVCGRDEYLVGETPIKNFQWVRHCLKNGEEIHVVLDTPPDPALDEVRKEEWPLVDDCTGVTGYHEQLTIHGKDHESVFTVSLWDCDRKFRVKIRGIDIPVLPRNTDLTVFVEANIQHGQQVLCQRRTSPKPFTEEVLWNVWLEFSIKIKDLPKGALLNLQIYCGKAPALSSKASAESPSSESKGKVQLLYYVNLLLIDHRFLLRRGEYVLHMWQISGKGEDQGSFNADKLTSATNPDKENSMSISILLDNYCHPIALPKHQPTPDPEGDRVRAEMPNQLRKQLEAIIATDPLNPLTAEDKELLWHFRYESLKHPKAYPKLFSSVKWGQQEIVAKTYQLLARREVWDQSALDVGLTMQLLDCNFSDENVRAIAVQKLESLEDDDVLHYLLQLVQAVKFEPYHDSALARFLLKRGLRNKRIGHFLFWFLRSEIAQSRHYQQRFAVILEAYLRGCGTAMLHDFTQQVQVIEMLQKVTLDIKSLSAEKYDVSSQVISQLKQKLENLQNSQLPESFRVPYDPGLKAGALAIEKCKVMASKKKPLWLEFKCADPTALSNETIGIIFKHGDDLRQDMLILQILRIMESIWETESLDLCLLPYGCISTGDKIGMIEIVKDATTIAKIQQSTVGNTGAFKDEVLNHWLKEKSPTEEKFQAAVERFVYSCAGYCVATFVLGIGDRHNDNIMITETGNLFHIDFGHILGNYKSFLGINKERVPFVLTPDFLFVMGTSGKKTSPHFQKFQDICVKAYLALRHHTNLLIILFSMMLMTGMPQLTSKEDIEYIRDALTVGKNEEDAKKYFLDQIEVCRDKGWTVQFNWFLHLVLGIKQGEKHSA
Outline: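 Enzymatic activity against the PI3K isoforms was measured using a time-resolved fluorescence resonance energy transfer (TR-FRET) assay.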

T1 sequence (P42338 whole entry): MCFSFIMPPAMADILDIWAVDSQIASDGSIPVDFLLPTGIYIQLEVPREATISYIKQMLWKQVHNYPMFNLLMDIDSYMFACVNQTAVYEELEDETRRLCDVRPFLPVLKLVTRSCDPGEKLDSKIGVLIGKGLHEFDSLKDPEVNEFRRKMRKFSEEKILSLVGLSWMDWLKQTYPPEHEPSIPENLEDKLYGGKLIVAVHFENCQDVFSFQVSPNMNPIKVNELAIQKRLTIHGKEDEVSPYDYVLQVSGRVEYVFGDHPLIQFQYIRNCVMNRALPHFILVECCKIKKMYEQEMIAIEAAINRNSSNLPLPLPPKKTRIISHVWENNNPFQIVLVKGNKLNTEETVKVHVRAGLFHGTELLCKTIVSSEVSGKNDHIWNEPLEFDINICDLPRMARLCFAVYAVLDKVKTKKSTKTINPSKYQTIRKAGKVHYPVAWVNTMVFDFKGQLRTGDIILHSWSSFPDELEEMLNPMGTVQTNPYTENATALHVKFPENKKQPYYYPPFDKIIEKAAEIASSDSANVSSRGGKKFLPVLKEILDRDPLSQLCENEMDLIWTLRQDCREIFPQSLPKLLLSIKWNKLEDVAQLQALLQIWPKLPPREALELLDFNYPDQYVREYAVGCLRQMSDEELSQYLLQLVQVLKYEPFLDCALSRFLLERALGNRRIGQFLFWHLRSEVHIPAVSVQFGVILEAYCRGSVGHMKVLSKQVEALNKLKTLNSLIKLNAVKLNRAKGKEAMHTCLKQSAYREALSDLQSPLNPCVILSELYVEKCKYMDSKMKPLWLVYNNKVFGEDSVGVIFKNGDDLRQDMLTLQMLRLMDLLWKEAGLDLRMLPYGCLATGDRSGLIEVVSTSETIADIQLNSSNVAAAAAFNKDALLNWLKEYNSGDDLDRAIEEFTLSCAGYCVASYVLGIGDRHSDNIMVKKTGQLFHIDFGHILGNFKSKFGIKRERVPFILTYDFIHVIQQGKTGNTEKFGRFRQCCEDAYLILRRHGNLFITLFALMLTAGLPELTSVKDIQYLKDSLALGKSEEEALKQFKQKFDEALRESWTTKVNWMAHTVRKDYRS
T1 sequence (P27986 whole entry partner): as the sequence (P27986 whole entry partner) above

SMILES | IC50 (PI3Kβ) [nM] | IC50 (PI3Kδ) [nM] | IC50 (PI3Kγ) [nM]
CCC[C@H](Nc1nc(N)nc(N)c1Cl)c1nc2c(Cl)ccc(Cl)c2c(=O)n1-c1cc[nH]n1 [Compound 255, (S)-5,8-dichloro-2-(1-((2,6-diamino-5-chloropyrimidin-4-yl)amino)butyl)-3-(1H-pyrazol-3-yl)quinazolin-4(3H)-one] | 150 | 30 | > 10000
CC[C@H](Nc1nc(N)nc(N)c1C#N)c1nc2c(Cl)cc(F)cc2c(=O)n1-c1cc[nH]n1 [Compound 258, (S)-2,4-diamino-6-((1-(8-chloro-6-fluoro-4-oxo-3-(1H-pyrazol-3-yl)-3,4-dihydroquinazolin-2-yl)propyl)amino)pyrimidine-5-carbonitrile] | 7 | 3 | 3900
C[C@H](Nc1nc(N)nc(N)c1Cl)c1nc2ccc(F)c(Cl)c2c(=O)n1-c1cc[nH]n1 [Compound 259, (S)-5-chloro-2-(1-((2,6-diamino-5-chloropyrimidin-4-yl)amino)ethyl)-6-fluoro-3-(1H-pyrazol-3-yl)quinazolin-4(3H)-one] | 21 | 6 | 3500
C[C@H](Nc1nc(N)nc(N)c1C#N)c1nc2ccc(F)c(Cl)c2c(=O)n1-c1cc[nH]n1 [Compound 260, (S)-2,4-diamino-6-((1-(5-chloro-6-fluoro-4-oxo-3-(1H-pyrazol-3-yl)-3,4-dihydroquinazolin-2-yl)ethyl)amino)pyrimidine-5-carbonitrile] | 2 | 0.7 | 220
Nc1nc(N)c(Cl)c(N[C@H](c2nc3ccc(F)c(Cl)c3c(=O)n2-c2cc[nH]n2)C2CC2)n1 [Compound 261, (S)-5-chloro-2-(cyclopropyl((2,6-diamino-5-chloropyrimidin-4-yl)amino)methyl)-6-fluoro-3-(1H-pyrazol-3-yl)quinazolin-4(3H)-one] | 49 | 12 | 5200
N#Cc1c(N)nc(N)nc1N[C@H](c1nc2ccc(F)c(Cl)c2c(=O)n1-c1cc[nH]n1)C1CC1 [Compound 262, (S)-2,4-diamino-6-(((5-chloro-6-fluoro-4-oxo-3-(1H-pyrazol-3-yl)-3,4-dihydroquinazolin-2-yl)(cyclopropyl)methyl)amino)pyrimidine-5-carbonitrile] | 5 | 1 | 405
C[C@H](Nc1nc(N)nc(N)c1Cl)c1nc2ccc(F)c(Cl)c2c(=O)n1-c1cn[nH]c1 [Compound 263, (S)-5-chloro-2-(1-((2,6-diamino-5-chloropyrimidin-4-yl)amino)ethyl)-6-fluoro-3-(1H-pyrazol-4-yl)quinazolin-4(3H)-one] | 190 | 20 | 1200
C[C@H](Nc1nc(N)nc(N)c1C#N)c1nc2ccc(F)c(Cl)c2c(=O)n1-c1cn[nH]c1 [Compound 264, (S)-2,4-diamino-6-((1-(5-chloro-6-fluoro-4-oxo-3-(1H-pyrazol-4-yl)-3,4-dihydroquinazolin-2-yl)ethyl)amino)pyrimidine-5-carbonitrile] | 8 | 2 | 71
C[C@H](Nc1nc(N)nc(N)c1Cl)c1nc2c(Cl)cc(F)cc2c(=O)n1-c1cn[nH]c1 [Compound 265, (S)-8-chloro-2-(1-((2,6-diamino-5-chloropyrimidin-4-yl)amino)ethyl)-6-fluoro-3-(1H-pyrazol-4-yl)quinazolin-4(3H)-one] | 180 | 31 | 3100
C[C@H](Nc1nc(N)nc(N)c1C#N)c1nc2c(Cl)cc(F)cc2c(=O)n1-c1cn[nH]c1 [Compound 266, (S)-2,4-diamino-6-((1-(8-chloro-6-fluoro-4-oxo-3-(1H-pyrazol-4-yl)-3,4-dihydroquinazolin-2-yl)ethyl)amino)pyrimidine-5-carbonitrile] | 4 | 1 | 84
CCC[C@H](Nc1nc(N)nc(N)c1Cl)c1nc2ccc(F)c(Cl)c2c(=O)n1-c1cc[nH]n1 [Compound 267, (S)-5-chloro-2-(1-((2,6-diamino-5-chloropyrimidin-4-yl)amino)butyl)-6-fluoro-3-(1H-pyrazol-3-yl)quinazolin-4(3H)-one] | 120 | 27 | > 10000
CCC[C@H](Nc1nc(N)nc(N)c1C#N)c1nc2ccc(F)c(Cl)c2c(=O)n1-c1cc[nH]n1 [Compound 268, (S)-2,4-diamino-6-((1-(5-chloro-6-fluoro-4-oxo-3-(1H-pyrazol-3-yl)-3,4-dihydroquinazolin-2-yl)butyl)amino)pyrimidine-5-carbonitrile] | 5 | 2 | 900
N#Cc1c(N)nc(N)nc1N[C@H](c1nc2c(Cl)cc(F)cc2c(=O)n1-c1cn[nH]c1)C1CC1 [Compound 269, (S)-2,4-diamino-6-(((8-chloro-6-fluoro-4-oxo-3-(1H-pyrazol-4-yl)-3,4-dihydroquinazolin-2-yl)(cyclopropyl)methyl)amino)pyrimidine-5-carbonitrile] | 0.9 | 1 | 170
C[C@H](Nc1nc(N)nc(N)c1Cl)c1nc2c(Cl)cc(F)cc2c(=O)n1-c1n[nH]cc1Br [Compound 270, (S)-3-(4-bromo-1H-pyrazol-3-yl)-8-chloro-2-(1-((2,6-diamino-5-chloropyrimidin-4-yl)amino)ethyl)-6-fluoroquinazolin-4(3H)-one] | 2300 | 26 | > 10000
C[C@H](Nc1nc(N)nc(N)c1Cl)c1nc2c(C#N)cc(F)cc2c(=O)n1-c1cc[nH]n1 [Compound 271, (S)-2-(1-((2,6-diamino-5-chloropyrimidin-4-yl)amino)ethyl)-6-fluoro-4-oxo-3-(1H-pyrazol-3-yl)-3,4-dihydroquinazoline-8-carbonitrile] | 28 | 18 | > 10000
C[C@H](Nc1nc(N)nc(N)c1C#N)c1nc2c(C#N)cc(F)cc2c(=O)n1-c1cc[nH]n1 [Compound 272, (S)-2-(1-((2,6-diamino-5-cyanopyrimidin-4-yl)amino)ethyl)-6-fluoro-4-oxo-3-(1H-pyrazol-3-yl)-3,4-dihydroquinazoline-8-carbonitrile] | 1 | 0.9 | 2700
N#Cc1cc(F)cc2c(=O)n(-c3cc[nH]n3)c([C@@H](Nc3nc(N)nc(N)c3Cl)C3CC3)nc12 [Compound 273, (S)-2-(cyclopropyl((2,6-diamino-5-chloropyrimidin-4-yl)amino)methyl)-6-fluoro-4-oxo-3-(1H-pyrazol-3-yl)-3,4-dihydroquinazoline-8-carbonitrile] | 18 | 21 | > 10000
C[C@H](Nc1nc(N)nc(N)c1C#N)c1nc2ccccc2c(=O)n1-c1cc[nH]n1 [Compound 274, (S)-2,4-diamino-6-((1-(4-oxo-3-(1H-pyrazol-3-yl)-3,4-dihydroquinazolin-2-yl)ethyl)amino)pyrimidine-5-carbonitrile] | 2 | 3 | 760
C[C@H](Nc1nc(N)nc(N)c1Cl)c1nc2ccccc2c(=O)n1-c1cc[nH]n1 [Compound 275, (S)-2-(1-((2,6-diamino-5-chloropyrimidin-4-yl)amino)ethyl)-3-(1H-pyrazol-3-yl)quinazolin-4(3H)-one] | 46 | 40 | > 10000
C[C@H](NC(=O)c1nc(Cl)c(N)nc1N)c1nc2cccc(Cl)c2c(=O)n1-c1cc[nH]n1 [Compound 276, (S)-3,5-diamino-6-chloro-N-(1-(5-chloro-4-oxo-3-(1H-pyrazol-3-yl)-3,4-dihydroquinazolin-2-yl)ethyl)pyrazine-2-carboxamide] | 20 | 36 | 280
C[C@H](NC(=O)c1nc(Cl)c(N)nc1N)c1nc2c(F)ccc(Cl)c2c(=O)n1-c1cc[nH]n1 [Compound 277, (S)-3,5-diamino-6-chloro-N-(1-(5-chloro-8-fluoro-4-oxo-3-(1H-pyrazol-3-yl)-3,4-dihydroquinazolin-2-yl)ethyl)pyrazine-2-carboxamide] | 43 | 50 | 390
C[C@H](NC(=O)c1nc(Cl)c(N)nc1N)c1nc2c(F)ccc(Cl)c2c(=O)n1-c1cn[nH]c1 [Compound 278, (S)-3,5-diamino-6-chloro-N-(1-(5-chloro-8-fluoro-4-oxo-3-(1H-pyrazol-4-yl)-3,4-dihydroquinazolin-2-yl)ethyl)pyrazine-2-carboxamide] | 83 | 53 | 590
C[C@H](Nc1nc(N)nc(N)c1C#N)c1nc2c(Cl)cc(F)cc2c(=O)n1-c1cc[nH]n1 [Compound 279, (S)-2,4-diamino-6-((1-(8-chloro-6-fluoro-4-oxo-3-(1H-pyrazol-3-yl)-3,4-dihydroquinazolin-2-yl)ethyl)amino)pyrimidine-5-carbonitrile] | 1 | 0.2 | 710
Nc1nc(N)c(Cl)c(N[C@H](c2nc3c(Cl)cc(F)cc3c(=O)n2-c2c[nH]cn2)C2CC2)n1 [Compound 280, (S)-8-chloro-2-(cyclopropyl((2,6-diamino-5-chloropyrimidin-4-yl)amino)methyl)-6-fluoro-3-(1H-imidazol-4-yl)quinazolin-4(3H)-one] | 370 | 48 | > 10000
N#Cc1c(N)nc(N)nc1N[C@H](c1nc2c(Cl)cc(F)cc2c(=O)n1-c1c[nH]cn1)C1CC1 [Compound 281, (S)-2,4-diamino-6-(((8-chloro-6-fluoro-3-(1H-imidazol-4-yl)-4-oxo-3,4-dihydroquinazolin-2-yl)(cyclopropyl)methyl)amino)pyrimidine-5-carbonitrile] | 2 | 1 | 620
CCC[C@H](Nc1nc(N)nc(N)c1Cl)c1nc2cccc(Cl)c2c(=O)n1-c1c[nH]cn1 [Compound 282, (S)-5-chloro-2-(1-((2,6-diamino-5-chloropyrimidin-4-yl)amino)butyl)-3-(1H-imidazol-4-yl)quinazolin-4(3H)-one] | 120 | 26 | 5700
